Settings: Liquid, Vibrating tube method

CCCO [propan-1-ol]
mass density [kg/m3]
Settings | 293.15 K | 313.15 K | 333.15 K | 353.15 K
100 kPa | 803.8 | 787.1 | 769.9 | 752
10000 kPa | 811.3 | 795.5 | 780 | 762.5
20000 kPa | 818.1 | 803 | 788.3 | 771.8
30000 kPa | 824.4 | 810 | 795.7 | 780.2
40000 kPa | 830 | 816.4 | 802.5 | 787.9
50000 kPa | 835.6 | 822.3 | 809 | 795
60000 kPa | 841 | 827.9 | 815 | 801.4
70000 kPa | 845.9 | 833.2 | 820.6 | 807.7
80000 kPa | 850.7 | 838.3 | 826.2 | 813.4
90000 kPa | 855.2 | 843 | 831.2 | 818.7
100000 kPa | 859.6 | 847.9 | 836.3 | 823.8
110000 kPa | 863.7 | 852.3 | 840.9 | 828.8
120000 kPa | 867.8 | 856.6 | 845.3 | 833.5
130000 kPa | 871.6 | 860.7 | 849.6 | 837.9
140000 kPa | 875.3 | 864.6 | 853.6 | 842.1

Reference: the NIST ThermoML archive (doi:10.1016/j.fluid.2013.11.031)
